# US20230104283A1, “JNK INHIBITOR, AND PHARMACEUTICAL COMPOSITION AND USE THEREOF” (WUHAN LL SCIENCE AND TECHNOLOGY DEVELOPMENT CO. , LTD, priority 2019, published 2023)
# Legend:
# JNK1 kinase = target: T1, JNK1 kinase (Homo sapiens, UniProt P45983); test: JNK1 activity screening (time-resolved fluorometric HTRF kinase assay); format: biochemical; details: enzymatic assay, activity level
# T1 construct: purchased Carna Biosciences 04-163
# Procedure: JNK1 activity screening. JNK1 activity was detected using a 96-well (Cisbio, 66PL96025) time-resolved fluorometric assay. The JNK1 assay was conducted in the following assay buffer: 10 mM MgCl2 (Sigma, M1028), 1 mM MnCl2 (Sigma, M1787), 1 mM DTT (Sigma, D0632) and 1× Enzymatic buffer/kinase (Cisbio, 62EZBFDC). By using the assay buffer, 3 μL of 0.1 ng/μL JNK1 kinase (Carna Biosciences, 04-163) was added to a 96-well microplate, and then 4 μL of a compound diluted appropriately (with a DMSO content of 2.5%) was added. The resulting mixture was incubated at room temperature for 0.5 h. To start the reaction, the assay buffer was used to mix 0.003 μM ATP (Aladdin, A7699) and 30 μM substrate ATF2-GST fusion (Cisbio, 64CUS000AFPEB), and 3 μL of the mixed solution was added to the microplate. The resulting mixture was incubated at room temperature for 2.5 h. HTRF detection buffer ([…], 62SDBRDD) was used then to prepare a mixture of 5 μg/mL MAb Anti GST-XL665 (Cisbio, 61GSTXLA) and 0.045 μg/mL PAb Anti-phospho ATF2-K (Cisbio, 61P12KAZ), and 10 μL of the mixture was added to the plate to terminate the reaction. After incubation for about 12 h, the plate was read on a Perkin-Elmer Envision reader.
# [1] = tested on: RAW264.7 phosphorylated c-Jun (Ser63); test: RAW264.7 phosphorylated c-Jun whole cell assay; format: cell-based; details: Mus musculus; cytological assay, activity level; lipopolysaccharide-activated RAW264.7 cells, phospho-c-Jun (Ser63) ELISA
# Procedure: RAW264.7 (ATCC TIB-71) cells were purchased from BeNa Culture Collection and maintained in a high-glucose DMEM medium (Gibco) containing 10% fetal bovine serum (Gibco) and 1% penicillin-streptomycin (Gibco). All cells were cultured at 37° C. in 95% air and 5% CO2. All cells were seeded into 120 μL of cell culture medium in a 96-well plate at a density of 2×10^5 cells per well. The stock solution of compound (15 mM) was serially diluted in DMSO (Sigma) and further diluted in growth medium, and it was then added at 15 μL per well as a 10× concentrated solution, well mixed with the cells and incubated with the cells for 30 min. Concentration of the compound vehicle (DMSO) in each well was 0.2%. After incubation for 30 min, the cells were activated with […] lipopolysaccharide (Sigma). Lipopolysaccharide was added to the growth medium as a 10× concentrated solution at 15 μL per well. The cell plate was incubated for 1 h, and then all the medium was removed. The level of C-Jun protein with phosphorylation of serine at site 63 was measured using the whole cell lysate kit-phosphorylated C-Jun assay (PathScan® Phospho-c-Jun (Ser63) Sandwich ELISA Kit) (CST, 7145C) according to the manufacturer's instructions.
# T1 sequence (P45983 whole entry): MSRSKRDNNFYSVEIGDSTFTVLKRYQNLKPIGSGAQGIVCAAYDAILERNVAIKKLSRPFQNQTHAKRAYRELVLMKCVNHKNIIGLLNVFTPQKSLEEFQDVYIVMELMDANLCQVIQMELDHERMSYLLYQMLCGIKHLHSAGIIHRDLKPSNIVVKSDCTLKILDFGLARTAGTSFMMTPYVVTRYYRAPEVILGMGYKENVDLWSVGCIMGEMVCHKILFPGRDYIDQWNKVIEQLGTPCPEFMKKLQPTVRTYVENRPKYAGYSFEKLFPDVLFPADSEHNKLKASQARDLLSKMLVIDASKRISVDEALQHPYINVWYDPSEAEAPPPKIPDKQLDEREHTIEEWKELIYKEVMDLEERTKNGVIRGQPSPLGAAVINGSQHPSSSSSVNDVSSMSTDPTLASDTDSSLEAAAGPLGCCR
SMILES,IC50 (JNK1 kinase) [nM],IC50 [1] [nM]
"C[C@@H]1CC[C@@H](Nc2nc(NC(C)(C)C)ncc2C(F)F)C[C@H]1O [Compound T028, (1R,2R,5R)-5-((2-(tert-butylamino)-5-(difluoromethyl)pyrimidin-4-yl)amino)-2-methylcyclohex-1-ol]",> 1000,> 1000
"COc1cnc(NC(C)(C)C)nc1N[C@@H]1CC[C@@H](C)[C@H](O)C1 [Compound T029, (1R,2R,5R)-5-((2-(tert-butylamino)-5-methoxypyrimidin-4-yl)amino)-2-methylcyclohex-1-ol]",> 1000,> 1000
"C[C@@H]1CC[C@@H](Nc2nc(NC(C)(C)C)ncc2CF)C[C@H]1O [Compound T030, (1R,2R,5R)-5-((2-(tert-butylamino)-5-(fluoromethyl)pyrimidin-4-yl)amino)-2-methylcyclohex-1-ol]",> 1000,> 1000
"C[C@@H]1CC[C@@H](Nc2nc(NC(C)(C)C)ncc2S(N)(=O)=O)C[C@H]1O [Compound T031, 2-(tert-butylamino)-4-(((1R,3R,4R)-3-hydroxy-4-methylcyclohexyl)amino) pyrimidine-5-sulfamide]",> 1000,> 1000
"C[C@@H]1CC[C@@H](Nc2nc(NC(C)(C)C)ncc2O)C[C@H]1O [Compound T032, 2-(tert-butylamino)-4-(((1R,3R,4R)-3-hydroxy-4-methylcyclohexyl)amino) pyrimidine-5-ol]",> 1000,> 1000
"C[C@@H]1CC[C@@H](Nc2nc(NC(C)(C)C)ncc2-n2ccnc2)C[C@H]1O [Compound T034, (1R,2R,5R)-5-((2-(ter-butylamino)-5-(1H-imidazol-1-yl)pyrimidin-4-yl)amino)-2-methylcyclohex-1-ol]",> 1000,> 1000
"CS(=O)(=O)CCn1ccc(Nc2ccnc(N[C@H]3CC[C@H](O)CC3)n2)n1 [Compound T037, (1R,4R)-4-((4-((1-(2-(methylsulfonyl)ethyl)-1H-pyrazol-3-yl)amino)pyrimidin-2-yl)amino)cyclohexan-1-ol]",> 1000,> 1000
"CS(=O)(=O)CCn1nccc1Nc1ccnc(N[C@H]2CC[C@H](O)CC2)n1 [Compound T038, (1R,4R)-4-((4-((1-(2-(methylsulfonyl)ethyl)-1H-pyrazol-5-yl)amino)pyrimidin-2-yl)amino)cyclohexan-1-ol]",> 1000,> 1000
"C[C@@H]1CC[C@@H](Nc2nc(OC(C)(C)C)ncc2C(N)=O)C[C@H]1O [Compound T043, 2-(tert-butoxy)-4-(((1R,3R,4R)-3-hydroxy-4-methylcyclohexyl)amino) pyrimidine-5-carboxamide]",500 to 1000,> 1000
"C[C@@H]1CC[C@@H](Nc2cc(NC(C)(C)C)ncc2C#N)C[C@H]1O [Compound T044, 6-(tert-butylamino)-4-(((1R,3R,4R)-3-hydroxy-4-methylcyclohexyl)amino) nicotinonitrile]",> 1000,> 1000
"C[C@@H]1CC[C@@H](Nc2cc(NC(C)(C)C)ncc2C(N)=O)C[C@H]1O [Compound T045, 6-(tert-butylamino)-4-(((1R,3R,4R)-3-hydroxy-4-methylcyclohexyl)amino) nicotinamide]",> 1000,> 1000
"C[C@@H]1CC[C@@H](Nc2cc(NC3CCCC(O)C3)ncc2C(N)=O)C[C@H]1O (stereo partly drawn) [Compound T053, 4-(((1R,3R,4R)-3-hydroxy-4-methylcyclohexyl)amino)-6-((3-hydroxycyclohexyl)amino) nicotinamide]",> 1000,> 1000
"C[C@@H]1CC[C@@H](Nc2cc(NC3CCCCC3)ncc2C(N)=O)C[C@H]1O [Compound T054, 6-(cyclohexylamino)-4-(((1R,3R,4R)-3-hydroxy-4-methylcyclohexyl)amino) nicotinamide]",> 1000,> 1000
"C[C@@H]1CC[C@@H](Nc2cc(NC3CCCC3O)ncc2C(N)=O)C[C@H]1O (stereo partly drawn) [Compound T055, 4-(((1R,3R,4R)-3-hydroxy-4-methylcyclohexyl)amino)-6-((2-hydroxycyclopentyl)amino)nicotinamide]",> 1000,> 1000

# The next lines start with the values.
IC50 (JNK1 kinase) [nM],IC50 [1] [nM],SMILES
500 to 1000,> 1000,"C[C@@H]1CC[C@@H](Nc2nc(NC(C)(C)C)ncc2C(=O)N2CC2)C[C@H]1O [Compound T027, Aziridin-1-yl(2-(tert-butylamino)-4-(((1R, 3R,4R)-3-hydroxy-4-methylcyclohexyl)amino)pyrimidin-5-yl)methanone]"
< 100,500 to 1000,"C[C@@H]1CC[C@@H](Nc2nc(NC(C)(C)C)ncc2Br)C[C@H]1O [Compound T033, (1R,2R,5R)-5-((5-bromo-2-(tert-butylamino)pyrimidin-4-yl)amino)-2-methylcyclohexan-1-ol]"
100 to 500,500 to 1000,"C[C@@H]1CC[C@@H](Nc2nc(NC(C)(C)C)ncc2-n2cncn2)C[C@H]1O [Compound T035, (1R,2R,5R)-5-((2-(tert-butylamino)-5-(1H-1,2,4-triazol-1-yl)pyrimidin-4-yl)amino)-2-methylcyclohexan-1-ol]"
100 to 500,500 to 1000,"C[C@@H]1CC[C@@H](Nc2nc(NC(C)(C)C)ncc2-n2ccnn2)C[C@H]1O [Compound T036, (1R,2R,5R)-5-((2-(tert-butylamino)-5-(1H-1,2,3-triazol-1-yl)pyrimidin-4-yl)amino)-2-methylcyclohexan-1-ol]"
100 to 500,> 1000,"C[C@@H]1CC[C@@H](Nc2nc(O[C@H]3CC[C@H](O)CC3)ncc2C(N)=O)C[C@H]1O [Compound T039, 4-(((1R,3R,4R)-3-hydroxy-4-methylcyclohexyl)amino)-2-(((1R, 4R)-4-hydroxycyclohexyl)oxy) pyrimidine-5-carboxamide]"
100 to 500,500 to 1000,"COc1ccc(Oc2ncc(C(N)=O)c(N[C@@H]3CC[C@@H](C)[C@H](O)C3)n2)cc1 [Compound T040, 4-(((1R,3R,4R)-3-hydroxy-4-methylcyclohexyl)amino)-2-(4-methoxyphenoxy)pyrimidine-5-carboxamide]"
500 to 1000,> 1000,"C[C@@H]1CC[C@@H](Nc2nc(OC3CC3)ncc2C(N)=O)C[C@H]1O [Compound T042, 2-cyclopropoxy-4-(((1R,3R,4R)-3-hydroxy-4-methylcyclohexyl)amino) pyrimidine-5-carboxamide]"
500 to 1000,> 1000,"C[C@@H]1CC[C@@H](Nc2cc(NCCO)ncc2C(N)=O)C[C@H]1O [Compound T046, 4-(((1R,3R,4R)-3-hydroxy-4-methylcyclohexyl)amino)-6-((2-hydroxyethyl)amino)nicotinamide]"
500 to 1000,> 1000,"CC(C)Nc1cc(N[C@@H]2CC[C@@H](C)[C@H](O)C2)c(C(N)=O)cn1 [Compound T047, 4-(((1R,3R,4R)-3-hydroxy-4-methylcyclohexyl)amino)-6-(isopropylamino)nicotinamide]"
500 to 1000,> 1000,"C[C@@H]1CC[C@@H](Nc2cc(NC3CCC(O)C3)ncc2C(N)=O)C[C@H]1O (stereo partly drawn) [Compound T048, 4-(((1R,3R,4R)-3-hydroxy-4-methylcyclohexyl)amino)-6-((3-hydroxycyclopentyl)amino) nicotinamide]"
500 to 1000,> 1000,"C[C@@H]1CC[C@@H](Nc2cc(NC3CCC3)ncc2C(N)=O)C[C@H]1O [Compound T049, 6-(cyclobutylamino)-4-(((1R,3R,4R)-3-hydroxy-4-methylcyclohexyl)amino) nicotinamide]"
500 to 1000,> 1000,"C[C@@H]1CC[C@@H](Nc2cc(NC3CCC3O)ncc2C(N)=O)C[C@H]1O (stereo partly drawn) [Compound T050, 4-(((1R,3R,4R)-3-hydroxy-4-methylcyclohexyl)amino)-6-((2-hydroxycyclobutyl)amino)nicotinamide]"
500 to 1000,> 1000,"C[C@@H]1CC[C@@H](Nc2cc(NC3CC(O)C3)ncc2C(N)=O)C[C@H]1O (stereo partly drawn) [Compound T051, 4-(((1R,3R,4R)-3-hydroxy-4-methylcyclohexyl)amino)-6-((3-hydroxycyclobutyl)amino)nicotinamide]"
500 to 1000,> 1000,"C[C@@H]1CC[C@@H](Nc2cc(NC3CCC(O)CC3)ncc2C(N)=O)C[C@H]1O (stereo partly drawn) [Compound T052, 4-(((1R,3R,4R)-3-hydroxy-4-methylcyclohexyl)amino)-6-((4-hydroxycyclohexyl)amino) nicotinamide]"
